pEC50: −log10 of the molar value.
Tests used:
[1] = target: T1, Orexin receptor type 2 (Homo sapiens, UniProt O43614); assay: Agonist activity at human OX2R expressed in human HEK293 cells co-transfected with human Galphaq assessed as accumulation of inositol phosphate by scintillation counter analysis
T1 sequence (O43614 whole entry): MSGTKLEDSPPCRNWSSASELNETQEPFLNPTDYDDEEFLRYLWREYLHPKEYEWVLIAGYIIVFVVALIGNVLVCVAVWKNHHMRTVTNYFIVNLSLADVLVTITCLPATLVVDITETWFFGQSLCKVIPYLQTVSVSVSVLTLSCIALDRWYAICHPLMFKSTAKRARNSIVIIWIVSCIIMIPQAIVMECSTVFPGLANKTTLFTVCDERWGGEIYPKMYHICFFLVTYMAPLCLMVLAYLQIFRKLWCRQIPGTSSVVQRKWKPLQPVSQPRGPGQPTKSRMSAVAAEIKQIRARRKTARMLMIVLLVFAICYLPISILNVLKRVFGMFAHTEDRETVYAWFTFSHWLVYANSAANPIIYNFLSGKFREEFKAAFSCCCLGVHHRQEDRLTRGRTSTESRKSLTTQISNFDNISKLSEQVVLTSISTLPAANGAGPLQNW

[2] = Half life in mouse plasma at 5 mg/kg,iv administration; format: ADME, organism-based
[3] = Cmax in mouse plasma at 5 mg/kg,iv administration; format: ADME, organism-based
[4] = Tmax in mouse plasma at 5 mg/kg,iv administration; format: ADME, organism-based
[5] = AUClast in mouse plasma at 5 mg/kg,iv administration; format: ADME, organism-based
[6] = Half life in mouse brain at 5 mg/kg,iv administration; format: ADME, organism-based
[7] = Cmax in mouse brain at 5 mg/kg,iv administration; format: ADME, organism-based
[8] = Tmax in mouse brain at 5 mg/kg,iv administration; format: ADME, organism-based
[9] = AUClast in mouse brain at 5 mg/kg,iv administration; format: ADME, organism-based; details: in vivo
[10] = Ratio of AUC in mouse brain to plasma at 5 mg/kg,iv administration; format: ADME, organism-based; details: read-out: Ratio AUC
[11] = Ratio of Cmax in mouse brain to plasma at 5 mg/kg,iv administration; format: ADME, organism-based
[12] = tested on: HEK293; assay: Cytotoxicity against human HEK293 cells upto 100 uM incubated for 3 days; format: toxicity, cell-based; details: hek293, 72 h, time 3 day

With `Cc1ccc(C[C@@H](CO)n2c(=N)n(Cc3ccc(C)cc3)c3ccc(C(F)(F)F)cc32)cc1` the pEC50 [1] was less than 5.00.

For `COC[C@H](Cc1ccc(C)cc1)n1c(=N)n(C(c2ccc(C)cc2)C2CC2)c2ccccc21` (stereo in doubt; 61c), the pEC50 [1] was 5.71.

Compound `Cc1ccc(C[C@@H](CS(C)(=O)=O)n2c(=N)n(Cc3ccc(C)cc3)c3ccccc32)cc1` has a pEC50 [1] of 5.35.

Work on `Cc1ccc(C[C@@H](CNC(=O)CO)n2c(=N)n(C(c3ccc(C)cc3)C(C)C)c3ccccc32)cc1` (mixture of isomers) yielded a pEC50 [1] of 5.71.

`Cc1ccc(C[C@@H](CNC(=O)CO)n2c(=N)n(C(C)c3ccc(C)cc3)c3cccnc32)cc1` (stereo in doubt; 68c) gave a pEC50 [1] of 5.88.

Work on `Cc1ccc(C[C@@H](CNC(=O)CO)n2c(=N)n(C(C)c3ccc(C)cc3)c3cccnc32)cc1` (stereo in doubt; 68b) yielded a pEC50 [1] of less than 5.00.

In the case of `CCC(=O)NCC(Cc1ccc(C)cc1)n1c(=N)n(Cc2ccc(C)cc2)c2ccccc21` (racemic), the pEC50 [1] was 5.09.

`COC(=O)NCC(Cc1ccc(C)cc1)n1c(=N)n(Cc2ccc(C)cc2)c2ccccc21` (racemic) showed a pEC50 [1] of 5.73.

Work on `Cc1ccc(C[C@@H](CNC(=O)CO)n2c(=N)n(C(C)c3ccc(C)cc3)c3ccccc32)cc1` (mixture of isomers) yielded a pEC50 [1] of 6.18.

In the case of `Cc1ccc(C[C@@H](C(=O)N2CC(C#N)C2)n2c(=N)n(C(C)c3ccc(C)cc3)c3ccccc32)cc1` (mixture of isomers), the pEC50 [1] was 6.18, the half-life [2] was 185 min and the Cmax [3] was 225 ng/mL. For the same compound, the Tmax [4] was 10 min, the AUC(0-t) [5] was 295 ng·h/mL and the half-life [6] was 234 min. The Cmax [7] was 53.2 ng/g, the Tmax [8] was 10 min and the AUClast [9] was 8586 ng·min/g. The Kp [10] was 0.48, the Kp [11] was 0.24 and the Activity [12] was “Non-Toxic”.

Compound `Cc1ccc(C[C@@H](CNC(=O)CO)n2c(=N)n(C(C)c3ccc(C)cc3)c3ccccc32)cc1` (stereo in doubt; 65b) has a pEC50 [1] of 5.82.

In the case of `COCOC[C@H](Cc1ccc(C)cc1)n1c(=N)n(C(C)c2ccc(C)cc2)c2cccnc21` (stereo in doubt; 62b), the pEC50 [1] was 5.24.

`Cc1ccc(C[C@@H](C(=O)N2CC(C#N)C2)n2c(=N)n(C(C)c3ccc(C)cc3)c3cccnc32)cc1` (some centres not stated) showed a half-life [2] of 40 min, a Cmax [3] of 651 ng/mL and a Tmax [4] of 10 min. The AUC(0-t) [5] was 518 ng·h/mL, the half-life [6] was 47 min and the Cmax [7] was 218 ng/g. The Tmax [8] was 10 min, the AUClast [9] was 12554 ng·min/g and the Activity [12] was “Non-Toxic”.

`COCCOC[C@H](Cc1ccc(C)cc1)n1c(=N)n(C(C)c2ccc(C)cc2)c2cccnc21` (stereo in doubt; 63c) gave a pEC50 [1] of 6.47.

Compound `Cc1ccc(CC(CNC(=O)Cc2ncccn2)n2c(=N)n(Cc3ccc(C)cc3)c3ccccc32)cc1` (racemic) has a pEC50 [1] of less than 5.00.

`Cc1ccc(C[C@@H](CNC(=O)c2cccc(C)n2)n2c(=N)n(Cc3ccc(C)cc3)c3ccccc32)cc1` showed a pEC50 [1] of less than 5.00.

Work on `Cc1ccc(C[C@@H](CNC(=O)c2ccco2)n2c(=N)n(Cc3ccc(C)cc3)c3ccccc32)cc1` yielded a pEC50 [1] of less than 5.00.

`Cc1ccc(C[C@@H](CNC(=O)CO)n2c(=N)n(C(C)c3ccc(C)cc3)c3ccccc32)cc1` (stereo in doubt; 65c) gave a pEC50 [1] of 6.36, a half-life [2] of 230 min and a Cmax [3] of 600 ng/mL. It also gave a Tmax [4] of 10 min, an AUC(0-t) [5] of 691 ng·h/mL and a half-life [6] of 729 min. It also gave a Cmax [7] of 15.3 ng/g, a Tmax [8] of 30 min and an AUClast [9] of 11291 ng·min/g. For the same compound, the Kp [10] was 0.27, the Kp [11] was 0.026 and the Activity [12] was “Non-Toxic”.

Compound `Cc1ccc(C[C@@H](C(=O)N2CC3(CNC3)C2)n2c(=N)n(C(C)c3ccc(C)cc3)c3ccccc32)cc1` (mixture of isomers) has a pEC50 [1] of less than 5.00.

Work on `Cc1ccc(CC(CNC(=O)Cc2ccncc2)n2c(=N)n(Cc3ccc(C)cc3)c3ccccc32)cc1` (racemic) yielded a pEC50 [1] of less than 5.00.

Work on `Cc1ccc(CC(CNC(=O)C(F)(F)F)n2c(=N)n(Cc3ccc(C)cc3)c3ccccc32)cc1` (racemic) yielded a pEC50 [1] of 5.18.

Work on `CSC[C@H](Cc1ccc(C)cc1)n1c(=N)n(Cc2ccc(C)cc2)c2ccccc21` yielded a pEC50 [1] of 5.63.

`Cc1ccc(CC(CNC(=O)CCCO)n2c(=N)n(Cc3ccc(C)cc3)c3ccccc32)cc1` (racemic) showed a pEC50 [1] of less than 5.00.

In the case of `Cc1ccc(C[C@@H](CNS(=O)(=O)C(F)F)n2c(=N)n(Cc3ccc(C)cc3)c3ccccc32)cc1`, the pEC50 [1] was 5.19.

`Cc1ccc(CC(CNC(=O)C2CC2)n2c(=N)n(Cc3ccc(C)cc3)c3ccccc32)cc1` (racemic) showed a pEC50 [1] of 5.28.

Compound `Cc1ccc(C[C@@H](CNC(=O)c2ncccc2C)n2c(=N)n(Cc3ccc(C)cc3)c3ccccc32)cc1` has a pEC50 [1] of less than 5.00.

With `Cc1ccc(CC(CNC(=O)Cc2cccnc2)n2c(=N)n(Cc3ccc(C)cc3)c3ccccc32)cc1` (racemic) the pEC50 [1] was 5.33.

For `Cc1ccc(C[C@@H](COCCC#N)n2c(=N)n(C(C)c3ccc(C)cc3)c3cccnc32)cc1` (stereo in doubt; 69c), the pEC50 [1] was 6.43.

`Cc1ccc(C[C@@H](CSC(C)C)n2c(=N)n(Cc3ccc(C)cc3)c3ccccc32)cc1` showed a pEC50 [1] of 5.27.

For `COCOC[C@H](Cc1ccc(C)cc1)n1c(=N)n(C(C)c2ccc(C)cc2)c2cccnc21` (stereo in doubt; 62c), the pEC50 [1] was 6.03, the half-life [2] was 48 min and the Cmax [3] was 741 ng/mL. The Tmax [4] was 10 min, the AUC(0-t) [5] was 673 ng·h/mL and the half-life [6] was 34 min. The Cmax [7] was 2460 ng/g, the Tmax [8] was 10 min and the AUClast [9] was 100501 ng·min/g. For the same compound, the Kp [10] was 2.49, the Kp [11] was 3.32 and the Activity [12] was “Non-Toxic”.

Compound `COC[C@H](Cc1ccc(C)cc1)n1c(=N)n(C(c2ccc(C)cc2)C(F)(F)F)c2ccccc21` (mixture of isomers) has a pEC50 [1] of 5.85.

Compound `COCCCOC[C@H](Cc1ccc(C)cc1)n1c(=N)n(Cc2ccc(C)cc2)c2ccccc21` has a pEC50 [1] of 5.44.

`Cc1ccc(CC(CNC(=O)CN(C)C)n2c(=N)n(Cc3ccc(C)cc3)c3ccccc32)cc1` (racemic) gave a pEC50 [1] of 5.48.

With `COC[C@H](Cc1ccc(C)cc1)n1c(=N)n(C(c2ccc(C)cc2)C2CC2)c2ccccc21` (stereo in doubt; 61b) the pEC50 [1] was 6.22, the half-life [2] was 74 min and the Cmax [3] was 841 ng/mL. The Tmax [4] was 10 min, the AUC(0-t) [5] was 986 ng·h/mL and the half-life [6] was 134 min. For the same compound, the Cmax [7] was 143 ng/g, the Tmax [8] was 30 min and the AUClast [9] was 38969 ng·min/g. For the same compound, the Kp [10] was 0.66, the Kp [11] was 0.17 and the Activity [12] was “Non-Toxic”.

`Cc1ccc(CC(CNS(=O)(=O)C(F)(F)F)n2c(=N)n(Cc3ccc(C)cc3)c3ccccc32)cc1` (racemic) showed a pEC50 [1] of less than 5.00.

Compound `CCSC[C@H](Cc1ccc(C)cc1)n1c(=N)n(Cc2ccc(C)cc2)c2ccccc21` has a pEC50 [1] of 5.40.

Work on `Cc1ccc(C[C@@H](COCCN(C)C)n2c(=N)n(Cc3ccc(C)cc3)c3ccccc32)cc1` yielded a pEC50 [1] of 5.40.

`Cc1ccc(C[C@@H](CNC(=O)CC(F)(F)F)n2c(=N)n(Cc3ccc(C)cc3)c3ccccc32)cc1` showed a pEC50 [1] of 5.19.

For `Cc1ccc(CC(CNC(=O)N(C)C)n2c(=N)n(Cc3ccc(C)cc3)c3ccccc32)cc1` (racemic), the pEC50 [1] was 5.38.

For `COCCOC[C@H](Cc1ccc(C)cc1)n1c(=N)n(C(C)c2ccc(C)cc2)c2cccnc21` (stereo in doubt; 63b), the pEC50 [1] was 5.33.

`Cc1ccc(CC(CNC=O)n2c(=N)n(Cc3ccc(C)cc3)c3ccccc32)cc1` (racemic) gave a pEC50 [1] of 5.61.

With `Cc1ccc(C[C@@H](CO)n2c(=N)n(Cc3ccc(C)cc3)c3ccc(C)cc32)cc1` the pEC50 [1] was less than 5.00.

For `Cc1ccc(C[C@@H](C[S+](C)[O-])n2c(=N)n(Cc3ccc(C)cc3)c3ccccc32)cc1` (some centres not stated), the pEC50 [1] was 5.15.

Compound `Cc1ccc(C[C@@H](CO)n2c(=N)n(Cc3ccc(C)cc3)c3cc(Cl)ccc32)cc1` has a pEC50 [1] of less than 5.00.

In the case of `CCOC(=O)NCC(Cc1ccc(C)cc1)n1c(=N)n(Cc2ccc(C)cc2)c2ccccc21` (racemic), the pEC50 [1] was 5.57.

Compound `Cc1ccc(CC(CNC(=O)c2ccccc2)n2c(=N)n(Cc3ccc(C)cc3)c3ccccc32)cc1` (racemic) has a pEC50 [1] of less than 5.00.

`Cc1ccc(CC(CNC(=O)Cc2ccccc2)n2c(=N)n(Cc3ccc(C)cc3)c3ccccc32)cc1` (racemic) showed a pEC50 [1] of less than 5.00.

In the case of `Cc1ccc(C[C@@H](COCCC#N)n2c(=N)n(C(C)c3ccc(C)cc3)c3cccnc32)cc1` (stereo in doubt; 69b), the pEC50 [1] was 5.25.

`Cc1ccc(CC(CNC(=O)CN)n2c(=N)n(Cc3ccc(C)cc3)c3ccccc32)cc1` (racemic) gave a pEC50 [1] of less than 5.00.

Work on `COC[C@H](Cc1ccc(C)cc1)n1c(=N)n(C(c2ccc(C)cc2)C2CCC2)c2ccccc21` (mixture of isomers) yielded a pEC50 [1] of less than 5.00.

Source: ChEMBL document CHEMBL5579801, “Novel orexin receptor agonists based on arene- or pyridine-fused 1,3-dihydro-2H-imidazole-2-imines” (Bioorg Med Chem Lett, 2024)
